Earlier results on one molecule are cited in patent US8529939B2, “Mucoadhesive drug delivery devices and methods of making and using thereof” (Gel-Del Technologies, Inc., priority 2003, dated 2013).

The mark [1] stands for this setting: contact time 30 s, previous study.

As for `OC[C@@H](O)[C@@H](O)[C@H](O)[C@H](O)CO` [Mannitol, mannitol], under setting [1], the tensile stress was 0.017 N/cm^2 and the tensile work is given as 0.015 mJ/cm^2. Moreover, the “bioadhesive properties (in words)” value (powders, control reference) is “no bioadhesive properties”.
